Patent US11459323B2, “Monocyclic β-lactam compound for treating bacterial infection” (MEDSHINE DISCOVERY INC., priority 2018, dated 2022)
Values after ≈ are worked out from the molar mass of the structure shown.

Experiments:
Experiment in all cases: MIC on clinically isolated bacteria
Format in all cases: cell-based
[1] = test system: Acinetobacter baumannii C241; settings: Acinetobacter baumannii C241; read-out: Minimum Inhibitory Concentration (MIC)
Text: (§1) Twenty-five strains of clinically isolated Acinetobacter baumannii and twenty-seven strains of Pseudomonas aeruginosa were respectively selected and used to determine the minimum inhibitory concentration (MIC) of the compounds by micro-liquid dilution method according to the Institute of Clinical and Laboratory Standard (CLSI) requirements.

[2] = test system: Acinetobacter baumannii C251; settings: Acinetobacter baumannii C251; read-out: Minimum Inhibitory Concentration (MIC)
Text: as §1

[3] = test system: Acinetobacter baumannii C270; settings: Acinetobacter baumannii C270; read-out: Minimum Inhibitory Concentration (MIC)
Text: as §1

[4] = test system: Acinetobacter baumannii C279; settings: Acinetobacter baumannii C279; read-out: Minimum Inhibitory Concentration (MIC)
Text: as §1

[5] = test system: Acinetobacter baumannii C283; settings: Acinetobacter baumannii C283; read-out: Minimum Inhibitory Concentration (MIC)
Text: as §1

[6] = test system: Acinetobacter baumannii C312; settings: Acinetobacter baumannii C312; read-out: Minimum Inhibitory Concentration (MIC)
Text: as §1

[7] = test system: Acinetobacter baumannii C313; settings: Acinetobacter baumannii C313; read-out: Minimum Inhibitory Concentration (MIC)
Text: as §1

[8] = test system: Acinetobacter baumannii C315; settings: Acinetobacter baumannii C315; read-out: Minimum Inhibitory Concentration (MIC)
Text: as §1

[9] = test system: Acinetobacter baumannii C319; settings: Acinetobacter baumannii C319; read-out: Minimum Inhibitory Concentration (MIC)
Text: as §1

[10] = test system: Acinetobacter baumannii C328; settings: Acinetobacter baumannii C328; read-out: Minimum Inhibitory Concentration (MIC)
Text: as §1

[11] = test system: Acinetobacter baumannii C330; settings: Acinetobacter baumannii C330; read-out: Minimum Inhibitory Concentration (MIC)
Text: as §1

[12] = test system: Acinetobacter baumannii C332; settings: Acinetobacter baumannii C332; read-out: Minimum Inhibitory Concentration (MIC)
Text: as §1

[13] = test system: Acinetobacter baumannii C333; settings: Acinetobacter baumannii C333; read-out: Minimum Inhibitory Concentration (MIC)
Text: as §1

[14] = test system: Acinetobacter baumannii C361; settings: Acinetobacter baumannii C361; read-out: Minimum Inhibitory Concentration (MIC)
Text: as §1

[15] = test system: Acinetobacter baumannii C390; settings: Acinetobacter baumannii C390; read-out: Minimum Inhibitory Concentration (MIC)
Text: as §1

[16] = test system: Acinetobacter baumannii C394; settings: Acinetobacter baumannii C394; read-out: Minimum Inhibitory Concentration (MIC)
Text: as §1

[17] = test system: Acinetobacter baumannii C395; settings: Acinetobacter baumannii C395; read-out: Minimum Inhibitory Concentration (MIC)
Text: as §1

[18] = test system: Acinetobacter baumannii C401; settings: Acinetobacter baumannii C401; read-out: Minimum Inhibitory Concentration (MIC)
Text: as §1

[19] = test system: Acinetobacter baumannii C402; settings: Acinetobacter baumannii C402; read-out: Minimum Inhibitory Concentration (MIC)
Text: as §1

[20] = test system: Acinetobacter baumannii C403; settings: Acinetobacter baumannii C403; read-out: Minimum Inhibitory Concentration (MIC)
Text: as §1

[21] = test system: Acinetobacter baumannii C427; settings: Acinetobacter baumannii C427; read-out: Minimum Inhibitory Concentration (MIC)
Text: as §1

[22] = test system: Pseudomonas aeruginosa C754; settings: read-out: MIC
Text: as §1

[23] = test system: Pseudomonas aeruginosa C755; settings: read-out: MIC
Text: as §1

[24] = test system: Pseudomonas aeruginosa C761; settings: read-out: MIC
Text: as §1

[25] = test system: Pseudomonas aeruginosa C762; settings: read-out: MIC
Text: as §1

[26] = test system: Pseudomonas aeruginosa C763; settings: read-out: MIC
Text: as §1

[27] = test system: Pseudomonas aeruginosa M1; settings: read-out: MIC
Text: as §1

[28] = test system: Pseudomonas aeruginosa W13; settings: read-out: MIC
Text: as §1

[29] = test system: Pseudomonas aeruginosa W19; settings: read-out: MIC
Text: as §1

[30] = test system: Pseudomonas aeruginosa W1; settings: read-out: MIC
Text: as §1

[31] = test system: Pseudomonas aeruginosa W21; settings: read-out: MIC
Text: as §1

[32] = test system: Pseudomonas aeruginosa W24; settings: read-out: MIC
Text: as §1

[33] = test system: Pseudomonas aeruginosa W27; settings: read-out: MIC
Text: as §1

[34] = test system: Pseudomonas aeruginosa W28; settings: read-out: MIC
Text: as §1

[35] = test system: Pseudomonas aeruginosa W35; settings: read-out: MIC
Text: as §1

[36] = test system: Pseudomonas aeruginosa W42; settings: read-out: MIC
Text: as §1

[37] = test system: Pseudomonas aeruginosa W46; settings: read-out: MIC
Text: as §1

[38] = test system: Pseudomonas aeruginosa W4; settings: read-out: MIC
Text: as §1

[39] = test system: Pseudomonas aeruginosa W6; settings: read-out: MIC
Text: as §1

[40] = test system: Pseudomonas aeruginosa W9; settings: read-out: MIC
Text: as §1

MIC [1] | MIC [2] | MIC [3] | MIC [4] | MIC [5] | MIC [6] | MIC [7] | MIC [8] | MIC [9] | MIC [10] | MIC [11] | MIC [12] | MIC [13] | MIC [14] | MIC [15] | MIC [16] | MIC [17] | MIC [18] | MIC [19] | MIC [20] | SMILES | also measured
> 16 µg/mL | 8 µg/mL (≈ 11.7 µM) | 8 µg/mL (≈ 11.7 µM) | 8 µg/mL (≈ 11.7 µM) | 8 µg/mL (≈ 11.7 µM) | 8 µg/mL (≈ 11.7 µM) | 8 µg/mL (≈ 11.7 µM) | 8 µg/mL (≈ 11.7 µM) | 8 µg/mL (≈ 11.7 µM) | 8 µg/mL (≈ 11.7 µM) | 8 µg/mL (≈ 11.7 µM) | 8 µg/mL (≈ 11.7 µM) | 8 µg/mL (≈ 11.7 µM) | 8 µg/mL (≈ 11.7 µM) | 8 µg/mL (≈ 11.7 µM) | 8 µg/mL (≈ 11.7 µM) | 8 µg/mL (≈ 11.7 µM) | 8 µg/mL (≈ 11.7 µM) | 8 µg/mL (≈ 11.7 µM) | 16 µg/mL (≈ 23.3 µM) | CC1(C)[C@H](NC(=O)/C(=N\O[C@@H](COc2ccc3c(c2)CN(C(=N)NOCCN)C3)C(=O)O)c2csc(N)n2)C(=O)N1OS(=O)(=O)O [Compound 43] | MIC [21]: 16 µg/mL (≈ 23.3 µM); MIC [22]: 1 µg/mL (≈ 1.46 µM); MIC [23]: 1 µg/mL (≈ 1.46 µM); MIC [24]: 2 µg/mL (≈ 2.92 µM); MIC [25]: 16 µg/mL (≈ 23.3 µM); MIC [26]: 8 µg/mL (≈ 11.7 µM); MIC [27]: 1 µg/mL (≈ 1.46 µM); MIC [28]: 1 µg/mL (≈ 1.46 µM); MIC [29]: 4 µg/mL (≈ 5.83 µM); MIC [30]: 8 µg/mL (≈ 11.7 µM); MIC [31]: 1 µg/mL (≈ 1.46 µM); MIC [32]: 8 µg/mL (≈ 11.7 µM); MIC [33]: 8 µg/mL (≈ 11.7 µM); MIC [34]: 8 µg/mL (≈ 11.7 µM); MIC [35]: 1 µg/mL (≈ 1.46 µM); MIC [36]: 1 µg/mL (≈ 1.46 µM); MIC [37]: 4 µg/mL (≈ 5.83 µM); MIC [38]: 0.5 µg/mL (≈ 0.729 µM); MIC [39]: 8 µg/mL (≈ 11.7 µM); MIC [40]: 8 µg/mL (≈ 11.7 µM)
> 16 µg/mL | 16 µg/mL (≈ 22.4 µM) | 16 µg/mL (≈ 22.4 µM) | 16 µg/mL (≈ 22.4 µM) | 16 µg/mL (≈ 22.4 µM) | 16 µg/mL (≈ 22.4 µM) | 16 µg/mL (≈ 22.4 µM) | 16 µg/mL (≈ 22.4 µM) | 16 µg/mL (≈ 22.4 µM) | 16 µg/mL (≈ 22.4 µM) | 16 µg/mL (≈ 22.4 µM) | 16 µg/mL (≈ 22.4 µM) | 16 µg/mL (≈ 22.4 µM) | 8 µg/mL (≈ 11.2 µM) | 16 µg/mL (≈ 22.4 µM) | 16 µg/mL (≈ 22.4 µM) | 8 µg/mL (≈ 11.2 µM) | 8 µg/mL (≈ 11.2 µM) | 8 µg/mL (≈ 11.2 µM) | 16 µg/mL (≈ 22.4 µM) | CC1(C)[C@H](NC(=O)/C(=N\O[C@@H](COc2ccc3c(c2)CN(C(=N)N(CCN)CCN)C3)C(=O)O)c2csc(N)n2)C(=O)N1OS(=O)(=O)O [Compound 45] | MIC [21]: 16 µg/mL (≈ 22.4 µM); MIC [22]: 4 µg/mL (≈ 5.61 µM); MIC [23]: 4 µg/mL (≈ 5.61 µM); MIC [24]: 8 µg/mL (≈ 11.2 µM); MIC [25]: > 16 µg/mL; MIC [26]: > 16 µg/mL; MIC [27]: 4 µg/mL (≈ 5.61 µM); MIC [28]: 4 µg/mL (≈ 5.61 µM); MIC [29]: 8 µg/mL (≈ 11.2 µM); MIC [30]: 16 µg/mL (≈ 22.4 µM); MIC [31]: 4 µg/mL (≈ 5.61 µM); MIC [32]: 16 µg/mL (≈ 22.4 µM); MIC [33]: 16 µg/mL (≈ 22.4 µM); MIC [34]: > 16 µg/mL; MIC [35]: 2 µg/mL (≈ 2.81 µM); MIC [36]: 4 µg/mL (≈ 5.61 µM); MIC [37]: 8 µg/mL (≈ 11.2 µM); MIC [38]: 2 µg/mL (≈ 2.81 µM); MIC [39]: > 16 µg/mL; MIC [40]: 16 µg/mL (≈ 22.4 µM)
